Measured values reported in ChEMBL document CHEMBL1240356, “Efficacy profiles of daptomycin for treatment of invasive and noninvasive pulmonary infections with Streptococcus pneumoniae” (2010).
Activity calls are given as the source filed them. The calls are words filed in the database; no cut-off is given here.

Columns and labels:
[1] = test system: Streptococcus pneumoniae; experiment: Antibacterial activity against low dose 5 x 10^6 CFU Streptococcus pneumoniae serotype 19 infected in semitherapeutic C57BL/6 mouse model assessed as bacteremic mouse at 6 mg/kg, ip measured after 1 day post infection; assay type: functional, organism-based; set-up: dose 6 mg/kg
[2] = test system: Streptococcus pneumoniae; experiment: Antibacterial activity against low dose 5 x 10^6 CFU Streptococcus pneumoniae serotype 2 infected in semitherapeutic C57BL/6 mouse model assessed as bacterial count in lung at 6 mg/kg, ip measured after 5 day post infection; assay type: functional; conditions: route intraperitoneal

For CCCCCCCCCC(=O)N[C@@H](Cc1c[nH]c2ccccc12)C(=O)N[C@H](CC(N)=O)C(=O)N[C@@H](CC(=O)O)C(=O)N[C@@H]1C(=O)NCC(=O)N[C@@H](CCCN)C(=O)N[C@@H](CC(=O)O)C(=O)N[C@H](C)C(=O)N[C@@H](CC(=O)O)C(=O)NCC(=O)N[C@H](CO)C(=O)N[C@@H]([C@H](C)CC(=O)O)C(=O)N[C@@H](CC(=O)c2ccccc2N)C(=O)O[C@@H]1C, the Activity [1] was “Active” and the log10cfu [2] was 3.2.
